Where “and” joins values, the source holds several entries; their conditions need not be identical. Equal values may be shown once.
Target: Nonstructural protein 3 (Zika virus, UniProt A0A024AXB9)
Test: Functional biochemical assay to identify treatments for viral infectious disease that targets Zika NS2B-NS3 protease. Utilizing a direct enzyme activity measurement method, reading the fluorescence intensity is used to characterize the relative potency of inhibitors as IC50.
Set-up: species or system PRVABC59

Sequence of Nonstructural protein 3 (A0A024AXB9 whole entry): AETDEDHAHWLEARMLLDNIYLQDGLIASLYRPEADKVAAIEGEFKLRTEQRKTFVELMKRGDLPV

IC50	Compound
9550 nM	O=C(Nc1ccc2c(c1)CNC2)c1cc(Cl)cc2nn[nH]c12
2010 nM	O=C(Nc1ccc2c(c1)CNC2)c1ccc2[nH]ncc2c1
46 nM and 43 nM	O=C(Nc1ccc2c(c1)CNC2)c1cccc2[nH]c(C(F)(F)F)cc12
100 nM and 76 nM	O=C(Nc1ccc2c(c1)CNC2)c1cc(Cl)cc2[nH]c(-c3ccnn3C3CC3)nc12
7290 nM	CN1Cc2cc(NC(=O)c3cc(Cl)cc4[nH]ncc34)ccc2C1(C)C
3300 nM	O=C(Nc1ccc2nc[nH]c2c1)c1cc(F)cc2[nH]ncc12
3390 nM	CC(C)CCN1Cc2ccc(NC(=O)c3cc(Cl)cc4[nH]ncc34)cc2C1
1150 nM	C=CC[C@H]1NCc2cc(NC(=O)c3cccc4c3CC(=O)N4)ccc21
> 25000 nM	COc1ccc2[nH]cnc2c1S(=O)(=O)Nc1ccc2c(c1)CNC2
11700 nM	O=C(Nc1ccc2c(c1)CNC2)c1ccc2c(c1)CCC2
> 25000 nM	O=C(Nc1ccc2c(c1)C(=O)OC2)c1cc(CC2CCNCC2)ccc1F
> 25000 nM	O=C1OCc2ccc(NC(=O)c3cccc4c3CNC4)cc21
> 25000 nM	NCc1ccccc1C(=O)Nc1ccc2c(c1)C(=O)OC2
> 25000 nM	O=C1OCc2ccc(NC(=O)[C@H]3CNC4(CCCC4)C3)cc21
176 nM	O=C(Nc1ccc2c(c1)CNC2)c1cc(F)cc2[nH]cnc12
> 25000 nM	O=C(Nc1ccc2c(c1)CNC2)c1nc(C(F)(F)F)cs1
107 nM	Cn1cc2c(C(=O)Nc3ccc4c(c3)CNC4)cc(F)cc2n1
274 nM	O=C(Nc1ccc2c(c1)CNC2)c1cc(Br)cc2[nH]c([C@H]3CCCO3)nc12
> 25000 nM	CN1C(=O)Cc2cc(C(=O)Nc3ccc4c(c3)CNC4)ccc21
449 nM	C=CC[C@H]1NCc2cc(NC(=O)c3cc(Cl)cc4[nH]ncc34)ccc21
8240 nM	O=C(Nc1ccc2c(c1)CNC2)c1cccc2c1OCCN2

IC50	Compound
> 25000 nM	C[C@](N)(C(=O)Nc1ccc2c(c1)C(=O)OC2)c1cccs1
> 25000 nM	CC1(C)C(=O)N[C@H]2CCCN(C(=O)Nc3ccc4c(c3)CNC4)[C@H]21
> 25000 nM	O=C1C[C@H]2[C@H](CCCN2C(=O)Nc2ccc3c(c2)CNC3)N1
> 25000 nM	O=C(Nc1ccc2c(c1)S(=O)(=O)NC2)c1cc(Cl)cc2[nH]ncc12
> 25000 nM	O=C(Nc1ccc2c(c1)CNC2)N1CC[C@H](Oc2ccc(C3CC3)cn2)C1
163 nM	CCc1ccc(-c2nc3c(C(=O)Nc4ccc5c(c4)CNC5)cc(Cl)cc3[nH]2)cc1
> 25000 nM	O=C(Nc1ccc2c(c1)CNC2)N1CCC[C@H]1c1nc2ncccc2[nH]1
> 25000 nM	O=C1NS(=O)(=O)c2ccc(NC(=O)c3cc(Cl)cc4[nH]ncc34)cc21
328 nM	CC(C)(C)c1nc2c(C(=O)Nc3ccc4c(c3)CNC4)cc(Br)cc2[nH]1
> 25000 nM	O=C(Nc1ccc2c(c1)CNC2)N1CCC[C@@H]1COCc1ccccc1
870 nM	CNC(=O)c1cccc(C(=O)Nc2ccc3c(c2)CNC3)c1
7050 nM	C#C[C@H](Nc1ccc2c(c1)CNC2)c1cccc2[nH]c(=O)[nH]c12
199 nM	CCOCC1(c2nc3c(C(=O)Nc4ccc5c(c4)CNC5)cc(Cl)cc3[nH]2)CC1
70 nM and 65 nM	O=C(Nc1ccc2c(c1)CNC2)c1cc(Cl)cc2cc[nH]c12
> 25000 nM	O=C(Nc1ccc2c(c1)C(=O)OC2)c1cccc(CC2CNC2)c1
289 nM	C=CC[C@H]1NCc2cc(NC(=O)c3cc(F)cc4[nH]ncc34)ccc21
281 nM	O=C(Nc1ccc2c(c1)CNC2)c1cccc2[nH]ccc12
> 25000 nM	O=C(Nc1cc([C@H]2CCOC2)ccn1)c1ccc2ncsc2c1
26 nM and 14 nM	O=C1Cc2c(cc(F)cc2C(=O)Nc2ccc3c(c2)CNC3)N1
14400 nM	CC(C)NC(=O)[C@H](Nc1ccc2c(c1)CNC2)c1cc(F)cc2[nH]ncc12
> 25000 nM	O=C(Nc1ccc2[nH]c(=O)[nH]c2c1)c1cc(F)cc2[nH]ncc12

IC50	Compound
1050 nM	O=C(Nc1ccc2c(c1)CNC2)c1cc(Cl)ccc1-n1cnnn1
> 25000 nM	O=C1OCc2ccc(NC(=O)[C@H]3CNCc4[nH]ncc43)cc21
34 nM and 22 nM	Cn1c(=O)[nH]c2c(C(=O)Nc3ccc4c(c3)CNC4)cc(Br)cc21
80 nM and 29 nM and 61 nM	O=C(Nc1ccc2c(c1)CNC2)c1cc(Cl)cc2[nH]c(-c3cc(C4CC4)[nH]n3)nc12
7260 nM	N#C[C@H](Nc1ccc2c(c1)CNC2)c1cccc2ncccc12
99 nM and 90 nM	O=C(Nc1ccc2c(c1)CNC2)c1cc(F)cc2c1CCC2
144 nM	O=C(Nc1ccc2c(c1)CNC2)c1cc(Cl)cc2[nH]c(CCc3cccnc3)nc12
10700 nM	NC[C@H]1CC[C@@H](NC(=O)c2cc(Cl)cc3[nH]ncc23)CC1
21000 nM	O=C(Nc1ccc2c(c1)CNC2)c1cc(Cl)cc(C(F)(F)F)n1
> 25000 nM	CC1(C)C[C@H](C(=O)Nc2ccc3c(c2)C(=O)OC3)CCN1
2870 nM	O=C(Nc1ccc2c(c1)CNC2)c1cccc2c1OCO2
5770 nM	Cc1nnc(SC[C@H]2CCCN2C(=O)Nc2ccc3c(c2)CNC3)s1
204 nM	O=C(Nc1ccc2c(c1)CNC2)c1cccc2nc(O)ccc12
> 25000 nM	C#C[C@H](Nc1ccc2c(c1)CNC2)c1cccc2c1CCNC2=O
> 25000 nM	Cc1nc2ccc(C(=O)Nc3ccc4c(c3)CNC4)cc2s1
785 nM	COCc1cc(Cl)cc(C(=O)Nc2ccc3c(c2)CNC3)c1
280 nM	CN(C)C(=O)CCCc1nc2c(C(=O)Nc3ccc4c(c3)CNC4)cc(Cl)cc2[nH]1
> 25000 nM	O=C(Nc1ccc2c(c1)CNC2)c1nc(-c2ccccc2)cs1
> 25000 nM	O=C1Cc2ccc(NC(=O)c3cc(F)cc4[nH]ncc34)cc2N1
187 nM	O=C(Nc1ccc2c(c1)CNC2)c1cc(Cl)cc(N2CCCC2=O)c1
260 nM	COc1cc(Cl)cc(C(=O)Nc2ccc3c(c2)CNC3)c1

IC50	Compound
2410 nM and 6850 nM	O=C1Cc2cc(C(=O)Nc3ccc4c(c3)CNC4)ccc2N1
> 25000 nM	CC(=O)N1Cc2ccc(NC(=O)c3cc(Cl)cc4[nH]ncc34)cc2C1
2580 nM	COc1ncc(Cl)cc1C(=O)Nc1ccc2c(c1)CNC2
> 25000 nM	NCCC1(C(=O)Nc2ccc3c(c2)C(=O)OC3)CCCC1
> 25000 nM	O=C1CCCc2cc(C(=O)Nc3ccc4c(c3)CNC4)ccc2N1
372 nM and 3470 nM	O=C(Nc1ccc2c(c1)CNC2)c1cc(Cl)cc2nn(-c3ccccc3)nc12
3200 nM	CCC[C@H](C)N1Cc2ccc(NC(=O)c3cc(Cl)cc4[nH]ncc34)cc2C1
207 nM and 615 nM	O=C(Nc1ccc2c(c1)CNC2)c1cccc2cn[nH]c12
> 25000 nM	CO[C@]1(C(=O)Nc2ccc3c(c2)C(=O)OC3)CCCNC1
48 nM and 28 nM	O=C(Nc1cc2c(cc1Br)CNC2)c1cc(F)cc2[nH]ncc12
268 nM	C#Cc1cc(Cl)cc(C(=O)Nc2ccc3c(c2)CNC3)c1
> 25000 nM	O=C1Cc2c(cc(Br)cc2C(=O)Nc2ccc3c(c2)C(=O)OC3)N1
113 nM	O=C(Nc1ccc2c(c1)CNC2)c1cc(Cl)cc2ccccc12
> 25000 nM	O=C1CN(C(=O)Nc2ccc3c(c2)CNC3)[C@H]2CCCC[C@H]2N1
> 25000 nM	O=C(Nc1ccc2c(c1)CNC2)N1CCC[C@H]1Cc1cc2ccccc2o1
151 nM	O=C(Nc1ccc2c(c1)CNC2)c1cc(Cl)cc2c1NCCC2
50 nM and 27 nM	O=C(Nc1ccc2c(c1)CNC2)c1cc(Cl)cc2[nH]c(-c3cnc(C4CC4)o3)nc12
114 nM	O=C(Nc1ccc2c(c1)CNC2)c1cc(Cl)cc(N2CCCC2)c1
863 nM	CC(=O)Nc1cccc(C(=O)Nc2ccc3c(c2)CNC3)c1

From ChEMBL document CHEMBL5604062, “ASAP - ZIKV NS2B-NS3 protease fluorescence dose response” (2024)
